The experiment deals with ROCK2 protein (Homo sapiens, UniProt O75116). The experiment can be described thus: Degradation inducing activity of ROCK2 protein in HUVEC cells, Western blotting (Simple Western JESS). It is filed as cell-based. Further details: endogenous in cells; host or cells: HUVEC (ATCC CRL-1730). As to conditions: HUVEC, 24 h; for inhibition at 1 µM: degradation rate at 1 µM; for inhibition at 10 µM: degradation rate at 10 µM. How it is done:
In vitro degradation inducing activity of ROCK2 protein of compounds of Examples was evaluated by Western Blotting (WB).
By a test compound, 10 mM DMSO solution was prepared, which was used as a 10 µM test compound solution. Further, the solution was diluted 10-fold with DMSO to prepare a 1 mM solution, which was used as a 1 µM test compound solution.
HUVEC cells (ATCC: CRL-1730, Lot: 70041472) were cultured in F-12K medium supplemented with 10% FBS, 0.1 mg/mL heparin, […] Endothelial Cell Growth Supplement (ECGS, Corning), and 1% Penicillin/Streptomycin. The HUVEC cells seeded in a 24 well plate at 50,000 cells/well/1 mL were cultured for 24 hours, and then 1 µL of DMSO or a test compound solution was added thereto and treatment was performed for 24 hours. Cells were harvested and lysed for 20 minutes on ice using lysis buffer (Cell Signaling Technology, Cat#9803) supplemented with protease inhibitor cocktail (Sigma, Cat#P8340; Roche, Cat#P11873580001), and phosphatase inhibitor cocktail (Sigma, Cat#P5726, P0044). The lysate was sonicated (15 seconds, amplitude 30%, 1 cycle) and then centrifuged at 12500 rpm for 15 minutes at 4°C. The protein concentration was determined by BCA assay kit (Thermo Fisher Scientific, Cat#23225).
The western blotting was performed using Simple Western JESS (protein simple). A cell lysis sample (protein amount; about 1.06 µg) was loaded on a plate of Simple Western JESS, and the expression level of ROCK2 protein was detected using a 12-230 kDa Wes Separation Module (Protein simple, Cat#SM-WO04), an Anti-Rabbit Detection Module for Wes (Protein simple, Cat#DM-001), and a Total Protein Detection Module for Wes (Protein simple, Cat#DM-TP01). As the primary antibody, a material obtained by diluting ROCK2 (D1B1) Rabbit mAb (Cell Signaling Technology, Cat#9029) at 1:10 was used, and as the secondary antibody, a material obtained by diluting HRP-labeled anti-rabbit IgG antibody (Cell Signaling Technology, Cat#7074S) at 1:100 was used. The expression level of the target protein was standardized using the total protein amount loaded as a reference. The standardized expression level data of the control (DMSO) was taken as 100%, and the degradation rate (%) was calculated from the average standardized expression level data of the test compound. All analysis steps, such as data detection and analysis, are fully automated.
With respect to the ROCK2 protein degradation rate of the test compound, the protein degradation rates (%) at the evaluation concentrations were set to A ≥ 75%, 75% > B ≥ 50%, 50% > C ≥ 25%, and D < 25%, and are shown in Table 7.
Background: A western blot detects proteins with antibodies after separation by electrophoresis.

Among the data in patent EP4578856A1, “HETEROCYCLIC COMPOUND” (Ubience Inc., priority 2022, dated 2024) are inhibition values, retold here.

Chain of ROCK2 protein (O75116 whole entry): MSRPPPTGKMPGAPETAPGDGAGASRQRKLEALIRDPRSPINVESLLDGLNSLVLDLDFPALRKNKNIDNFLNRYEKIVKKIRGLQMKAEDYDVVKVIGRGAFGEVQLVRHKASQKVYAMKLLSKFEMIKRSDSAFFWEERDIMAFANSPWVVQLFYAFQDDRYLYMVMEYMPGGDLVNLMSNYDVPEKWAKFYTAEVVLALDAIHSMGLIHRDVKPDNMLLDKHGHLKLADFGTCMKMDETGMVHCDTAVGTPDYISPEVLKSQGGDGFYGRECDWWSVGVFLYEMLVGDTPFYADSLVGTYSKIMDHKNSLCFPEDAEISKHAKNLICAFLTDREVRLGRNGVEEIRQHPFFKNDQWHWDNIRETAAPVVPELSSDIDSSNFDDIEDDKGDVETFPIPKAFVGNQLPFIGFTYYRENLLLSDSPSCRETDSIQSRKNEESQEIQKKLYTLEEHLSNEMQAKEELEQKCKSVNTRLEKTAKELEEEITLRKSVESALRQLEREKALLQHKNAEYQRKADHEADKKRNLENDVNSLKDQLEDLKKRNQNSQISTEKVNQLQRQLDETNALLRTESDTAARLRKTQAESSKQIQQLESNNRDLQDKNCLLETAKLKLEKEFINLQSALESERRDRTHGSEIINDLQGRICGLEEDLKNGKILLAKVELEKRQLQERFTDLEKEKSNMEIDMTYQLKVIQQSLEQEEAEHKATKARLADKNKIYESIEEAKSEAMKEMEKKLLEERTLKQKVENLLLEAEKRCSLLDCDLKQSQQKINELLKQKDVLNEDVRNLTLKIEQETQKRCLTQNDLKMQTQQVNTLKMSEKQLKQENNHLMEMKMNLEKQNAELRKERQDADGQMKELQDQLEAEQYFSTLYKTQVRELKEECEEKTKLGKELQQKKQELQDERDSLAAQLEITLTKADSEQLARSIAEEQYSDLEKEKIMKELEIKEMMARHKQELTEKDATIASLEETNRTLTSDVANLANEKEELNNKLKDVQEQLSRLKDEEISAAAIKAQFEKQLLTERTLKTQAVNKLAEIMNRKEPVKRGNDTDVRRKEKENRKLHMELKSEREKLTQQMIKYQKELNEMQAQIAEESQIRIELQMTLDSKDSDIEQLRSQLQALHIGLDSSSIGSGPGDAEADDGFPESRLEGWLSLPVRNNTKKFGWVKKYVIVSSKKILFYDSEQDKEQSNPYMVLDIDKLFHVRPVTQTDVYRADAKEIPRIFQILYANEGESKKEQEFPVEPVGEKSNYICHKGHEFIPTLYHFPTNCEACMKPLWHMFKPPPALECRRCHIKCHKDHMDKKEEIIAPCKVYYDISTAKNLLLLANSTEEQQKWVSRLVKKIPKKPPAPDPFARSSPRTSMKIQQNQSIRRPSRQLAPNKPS

What is called inhibition is the percentage by which the read-out fell short of the control. Regarding `COC[C@H]1CN[C@H](C)CN1CC(=O)N1CC(C)(C)c2ncc(Cc3cccc(OCCOCCOCCOCCOCCOCCOCCNC[C@@H](C(=O)Nc4ccc5cnccc5c4)c4ccccc4)c3)cc21` [Example 62, (S)-N-(Isoquinolin-6-yl)-1-(3-((1-(2-((2R,5R)-2-(methoxymethyl)-5-methylpiperazin-1-yl)acetyl)-3,3-dimethyl-2,3-dihydro-1H-pyrrolo[3,2-b]pyridin-6-yl)methyl)phenoxy)-23-phenyl-3,6,9,12,15,18-hexaoxa-21-azatetracosan-24-amide], the inhibition at 1 µM fell in the range of 25 to 50% and the inhibition at 10 µM is ≥ 75%.
As to `COC[C@H]1CN[C@H](C)CN1CC(=O)N1CC(C)(C)c2ncc(Cc3cccc(OCCOCCOCCOCCOCCOCCOCCOCCNC[C@@H](C(=O)Nc4ccc5cnccc5c4)c4ccccc4)c3)cc21` [Example 63, (S)-N-(Isoquinolin-6-yl)-1-(3-((1-(2-((2R,5R)-2-(methoxymethyl)-5-methylpiperazin-1-yl)acetyl)-3,3-dimethyl-2,3-dihydro-1H-pyrrolo[3,2-b]pyridin-6-yl)methyl)phenoxy)-26-phenyl-3,6,9,12,15,18,21-heptaoxa-24-azaheptacosan-27-amide], the inhibition at 1 µM was < 25% and the inhibition at 10 µM lay within 50 to 75%.
Taken in the same sequence, the figures for `COC[C@H]1CN[C@H](C)CN1CC(=O)N1CC(C)(C)c2nc(CN(C)CCOCCOCCOCCOCCOCCNC[C@@H](C(=O)Nc3ccc4cnccc4c3)c3ccccc3)c(Cc3ccc(F)cc3)cc21` [Example 40, (S)-1-(6-(4-Fluorobenzyl)-1-(2-((2R,5R)-2-(methoxymethyl)-5-methylpiperazin-1-yl)acetyl)-3,3-dimethyl-2,3-dihydro-1H-pyrrolo[3,2-b]pyridin-5-yl)-N-(isoquinolin-6-yl)-2-methyl-22-phenyl-5,8,11,14,17-pentaoxa-2,20-diazatricosan-23-amide] were 25 to 50% and 50 to 75%.
For `COC[C@H]1CN[C@H](C)CN1CC(=O)N1CC(C)(C)c2ncc(Cc3ccccc3OCCOCCOCCOCCOCCN[C@H](C)c3ccc(C(=O)Nc4ccncc4)cc3)cc21` [Example 67, 4-((R)-17-(2-((1-(2-((2R,5R)-2-(Methoxymethyl)-5-methylpiperazin-1-yl)acetyl)-3,3-dimethyl-2,3-dihydro-1H-pyrrolo[3,2-b]pyridin-6-yl)methyl)phenoxy)-6,9,12,15-tetraoxa-3-azaheptadecan-2-yl)-N-(pyridin-4-yl)benzamide] the same measures were < 25% and 50 to 75%.
Take `C[C@@H]1CN(CC(=O)N2CC(C)(C)c3ncc(Cc4ccc(F)cc4)cc32)[C@@H](CN(C)CCOCCN[C@H](Cc2cccc(F)c2)C(=O)Nc2ccc(-c3ccncc3)cc2)CN1` [Example 8, (R)-2-((2-(2-((((2R,5R)-1-(2-(6-(4-Fluorobenzyl)-3,3-dimethyl-2,3-dihydro-1H-pyrrolo[3,2-b]pyridin-1-yl)-2-oxoethyl)-5-methylpiperazin-2-yl)methyl) (methyl)amino)ethoxy)ethyl)amino)-3-(3-fluorophenyl)-N-(4-(pyridin-4-yl)phenyl)propanamide]: the inhibition at 1 µM lay in the range of 25 to 50% and the inhibition at 10 µM was ≥ 75%.
Regarding `COC[C@H]1CN[C@H](C)CN1CC(=O)N1CC(C)(C)c2ncc(Cc3ccccc3OCCOCCOCCN[C@H](Cc3cccc(F)c3)C(=O)Nc3ccc(-c4ccncc4)cc3)cc21` [Example 72, (R)-3-(3-Fluorophenyl)-2-((2-(2-(2-(2-((1-(2-((2R,5R)-2-(methoxymethyl)-5-methylpiperazin-1-yl)acetyl)-3,3-dimethyl-2,3-dihydro-1H-pyrrolo[3,2-b]pyridin-6-yl)methyl)phenoxy)ethoxy)ethoxy)ethyl)amino)-N-(4-(pyridin-4-yl)phenyl)propanamide], the inhibition at 1 µM is < 25% and the inhibition at 10 µM was ≥ 75%.
Taken in the same sequence, the figures for `COC[C@H]1CN[C@H](C)CN1CC(=O)N1CC(C)(C)c2ncc(Cc3ccccc3OCCOCCN[C@H](C)c3ccc(C(=O)Nc4ccncc4)cc3)cc21` [Example 64, 4-((R)-1-((2-(2-(2-((1-(2-((2R,5R)-2-(Methoxymethyl)-5-methylpiperazin-1-yl)acetyl)-3,3-dimethyl-2,3-dihydro-1H-pyrrolo[3,2-b]pyridin-6-yl)methyl)phenoxy)ethoxy)ethyl)amino)ethyl)-N-(pyridin-4-yl)benzamide] were < 25% and 50 to 75%.
In the case of `COC[C@H]1CN[C@H](C)CN1CC(=O)N1CC(C)(C)c2nc(CN(C)CCOCCOCCOCCOCCOCCOCCNC[C@@H](C(=O)Nc3ccc4cnccc4c3)c3ccccc3)c(Cc3ccc(F)cc3)cc21` [Example 41, (S)-1-(6-(4-Fluorobenzyl)-1-(2-((2R,5R)-2-(methoxymethyl)-5-methylpiperazin-1-yl)acetyl)-3,3-dimethyl-2,3-dihydro-1H-pyrrolo[3,2-b]pyridin-5-yl)-N-(isoquinolin-6-yl)-2-methyl-25-phenyl-5,8,11,14,17,20-hexaoxa-2,23-diazahexacosan-26-amide], the inhibition at 1 µM lay in the range of 50 to 75% and the inhibition at 10 µM is ≥ 75%.
Taken in the same sequence, the figures for `C[C@@H]1CN(CC(=O)N2CC(C)(C)c3ncc(Cc4ccc(F)cc4)cc32)[C@@H](CN(C)CCOCCOCCN[C@H](C)c2ccc(C(=O)Nc3ccncc3)cc2)CN1` [Example 2, 4-((R)-1-((2R,5R)-1-(2-(6-(4-Fluorobenzyl)-3,3-dimethyl-2,3-dihydro-1H-pyrrolo[3,2-b]pyridin-1-yl)-2-oxoethyl)-5-methylpiperazin-2-yl)-2-methyl-5,8-dioxa-2,11-diazatridecan-12-yl)-N-(pyridin-4-yl)benzamide] were < 25% and 50 to 75%.
For `C[C@@H]1CN(CC(=O)N2CC(C)(C)c3ncc(Cc4ccc(F)cc4)cc32)[C@@H](CN(C)CCOCCOCCOCCOCCOCCOCCOCCNC[C@@H](C(=O)Nc2ccc3cnccc3c2)c2ccccc2)CN1` [Example 21, (S)-1-((2R,5R)-1-(2-(6-(4-Fluorobenzyl)-3,3-dimethyl-2,3-dihydro-1H-pyrrolo[3,2-b]pyridin-1-yl)-2-oxoethyl)-5-methylpiperazin-2-yl)-N-(isoquinolin-6-yl)-2-methyl-28-phenyl-5,8,11,14,17,20,23-heptaoxa-2,26-diazanonacosan-29-amide] the same measures were 25 to 50% and 50 to 75%.
On to `COC[C@H]1CN[C@H](C)CN1CC(=O)N1CC(C)(C)c2nc(CN(C)CCOCCOCCOCCOCCOCCOCCN[C@H](C)c3ccc(C(=O)Nc4ccncc4)cc3)c(Cc3ccc(F)cc3)cc21` [Example 27, 4-((R)-1-(6-(4-Fluorobenzyl)-1-(2-((2R,5R)-2-(methoxymethyl)-5-methylpiperazin-1-yl)acetyl)-3,3-dimethyl-2,3-dihydro-1H-pyrrolo[3,2-b]pyridin-5-yl)-2-methyl-5,8,11,14,17,20-hexaoxa-2,23-diazapentacosan-24-yl)-N-(pyridin-4-yl)benzamide], for which the inhibition at 1 µM is < 25% and the inhibition at 10 µM was < 25%.
On to `COC[C@H]1CN[C@H](C)CN1CC(=O)N1CC(C)(C)c2nc(CN(C)CCOCCOCCNC[C@@H](C(=O)Nc3ccc4cnccc4c3)c3ccccc3)c(Cc3ccc(F)cc3)cc21` [Example 37, (S)-1-(6-(4-Fluorobenzyl)-1-(2-((2R,5R)-2-(methoxymethyl)-5-methylpiperazin-1-yl)acetyl)-3,3-dimethyl-2,3-dihydro-1H-pyrrolo[3,2-b]pyridin-5-yl)-N-(isoquinolin-6-yl)-2-methyl-13-phenyl-5,8-dioxa-2,11-diazatetradecan-14-amide], for which the inhibition at 1 µM is < 25% and the inhibition at 10 µM was ≥ 75%.
`COC[C@H]1CN[C@H](C)CN1CC(=O)N1CC(C)(C)c2ncc(Cc3ccccc3OCCOCCOCCOCCOCCOCCNC[C@@H](C(=O)Nc3ccc4cnccc4c3)c3ccccc3)cc21` [Example 82, (S)-N-(Isoquinolin-6-yl)-1-(2-((1-(2-((2R,5R)-2-(methoxymethyl)-5-methylpiperazin-1-yl)acetyl)-3,3-dimethyl-2,3-dihydro-1H-pyrrolo[3,2-b]pyridin-6-yl)methyl)phenoxy)-20-phenyl-3,6,9,12,15-pentaoxa-18-azahenicosan-21-amide]: the inhibition at 1 µM lay in the range of 25 to 50% and the inhibition at 10 µM was ≥ 75%.
